The record followed here is a melting point compilation (Tetko et al.; mined from patent text by program, amines drawn as free bases though some values may be those of a salt).

By melting point is commonly meant the temperature, or range, at which the solid turns liquid.

The compound `COc1ccc(C(=O)Nc2ccc(F)c(F)c2)cc1Nc1cccc(C(F)(F)F)c1` yielded a melting point of 166 to 169 °C.
Then `CCOC(=O)C1CCc2cc([N+](=O)[O-])ccc2O1` (stereo not given), with 80.8 °C; and `Oc1ccc(Br)cc1C=Nc1cc(Cl)cc(Cl)c1`, with 161 to 163 °C.
Regarding `CCCCOC(=O)C1Oc2ccccc2Cc2ccccc2O1`, the melting point was in the range of 63 to 66 °C.
In the case of `COc1c(C(=O)Nc2ccc(OCC(C)(C)C)c(C#N)c2)cnn1-c1ccc(F)cc1`, the melting point lay in the range of 120 to 123 °C.
Then `COc1cc(C(C)C)c(Oc2cnc(NC(=O)CNC3CCCC3)nc2N)cc1I`, with 176 to 178 °C; and `CCCCCCCCCCCCCCCCCCOc1cc(OCc2ccccc2)cc(C(=O)N(CC(=O)O)CC(=O)O)c1`, with 93 to 95 °C; and `COC(=O)C(Cc1c[nH]c2ccccc12)NC1CCC(c2ccccc2)(N(C)C)CC1` (stereo not given), with 60 to 65 °C.
Under `COC(=O)C1C(=O)Nc2ccc(C(F)(F)F)cc2CC1c1ccc(OC)cc1` (stereo not given) stands 161 to 163 °C; under `c1ccc(Oc2cccnc2N2CCNCC2)cc1`, 56 to 59 °C; under `CCOC(=O)n1c(=S)[nH]c2ccc(Br)cc2c1=O`, 214 °C.
`CCC1(CCCCN2CCc3sccc3C2)C(=O)Nc2cc(F)c(Cl)cc21` (stereo not given): the melting point was in the range of 155 to 157 °C.
With `CCOC(=O)C(C#N)(Cc1cc(OC)c(OC)c(OC)c1)C(OCC)OCC` (stereo not given), the melting point lay within 95 to 97 °C.
`Cn1nc(C(F)(F)F)n(-c2ccc(N)cc2Cl)c1=S` displayed a melting point of 145 to 147 °C.
In turn, `CCOC(=O)c1cn(-c2ccc(F)cc2)c2cc(F)c(F)c(C)c2c1=O` registered a melting point of 256 to 259 °C.
In turn, `O=C(NN=Cc1ccccc1O)c1cc2ccccc2cc1O` displayed a melting point of more than 285 °C.
`CC(=O)c1c(C)c(NC=O)c(C)c2c1OCC2c1ccc(C(C)C)cc1` (stereo not given) came in with a melting point of 177 to 179 °C.
Consider `O=C(O)c1c(C(F)(F)F)nn(-c2c(Cl)cc(C(F)(F)F)cc2Cl)c1C(F)(F)F`, for which the melting point was 185 to 190 °C.
As to `NC(=O)c1nc(-c2cccc(O)c2)nc2c1[nH]c(=O)n2-c1c(F)cccc1F`, the melting point was in the range of 355 to 358 °C.
As for `CCOc1cc(CO)ccc1OCCBr`, the melting point was in the range of 51 to 53 °C.
Then `CCCc1nc2c(N)nc3ccccc3c2s1`, with 140 to 142 °C.
Compound `CCC(CSC(=S)N(C)C)[N+](=O)[O-]` (stereo not given) displayed a melting point of 23 °C.
On to `Cc1ccc(S(=O)(=O)N(C)c2ccc(Cl)cc2N=O)cc1`, for which the melting point lay within 113 to 114 °C.
`CCCCOCCOC(=O)NCCCCCCNC(=O)OCCOCCCC` displayed a melting point of 64 to 66 °C.
`C=CCOc1ccc2c(=O)c3ccccc3oc2c1C(=O)C=Cc1ccccc1` yielded a melting point of 150 to 152 °C.
Turning to `Cc1csc2ccc3[nH]c4c(c3c12)CN(Cc1ccccc1)CC4`, the melting point is 93 °C.
Under `O=S(=O)(C1CC1)C(F)(F)C(O)(Cn1cncn1)c1ccc(F)cc1F` (stereo not given) stands 130 to 132 °C; under `COc1ccc(CN(C)CCCc2ccc(NC(=O)c3[nH]c4ccccc4c3C(=O)c3ccccc3)cc2)cc1OC`, 156 to 161 °C.
`C[C@@H](n1cnc2cccc(Cl)c2c1=O)[C@](O)(Cn1cncn1)c1ccc(F)cc1F`: the melting point lay in the range of 114 to 119 °C.
On to `O=C1CCCc2cc(OCCCCl)ccc21`, for which the melting point is 85 to 87 °C.
In turn, `O=C(O)/C=C/c1ccc(-c2nc3c(=O)n(CCC4CCCCCC4)c(=O)n(CCC4CCCCCC4)c3[nH]2)cc1` returned a melting point of more than 250 °C.
`CS(=O)(=O)Nc1cc2c(c(C(=O)O)c1)NCCC2` came in with a melting point of 244 °C.
Then `OCCCc1oc(Sc2ccccn2)nc1-c1ccc(Cl)cc1`, with 70 to 71 °C; and `O=C(Nc1ccccc1)c1cscc1Cl`, with 119 to 121 °C; and `O=C(/C=C/C=C/c1cccc2ccccc12)NCCCCCC(=O)NO`, with 143 to 145 °C.
